Source: PubChem BioAssay (NCI)
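All cell lines were grown in 96-well plates and treated with compound for 48 hours. The concentration for 50% growth inhibition is given as GI50. The concentration for full growth arrest is given as TGI.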

Experiments:
Experiment in all cases: NCI tumour cell line growth inhibition, 48 h
UO-31 renal = test system: UO-31 renal
ACHN renal = test system: ACHN renal
UACC-62 melanoma = test system: UACC-62 melanoma
SF-295 CNS = test system: SF-295 CNS
DU-145 prostate = test system: DU-145 prostate
SN12C renal = test system: SN12C renal
OVCAR-3 ovarian = test system: OVCAR-3 ovarian
RPMI-8226 leukemia = test system: RPMI-8226 leukemia
UACC-257 melanoma = test system: UACC-257 melanoma
HT29 colon = test system: HT29 colon

With `CC(=O)OC1COC(Oc2c(C)c3c4c(c2O)[C@@H](C)CC[C@@H]4[C@@H](C)C[C@H]3C=C(C)C)C(O)C1O` (some centres not stated) the GI50 (UO-31 renal) was 25.1 µM, the TGI (UO-31 renal) was greater than 100 µM and the GI50 (ACHN renal) was 18.5 µM. It also gave a TGI (ACHN renal) of 36.8 µM, a GI50 (UACC-62 melanoma) of 18.8 µM and a TGI (UACC-62 melanoma) of 39.4 µM. For the same molecule, the GI50 (SF-295 CNS) was 17.9 µM, the TGI (SF-295 CNS) was 35.3 µM and the GI50 (DU-145 prostate) was 13.7 µM. The TGI (DU-145 prostate) was 30.7 µM, the GI50 (SN12C renal) was 20.8 µM and the TGI (SN12C renal) was 46.8 µM. For the same molecule, the GI50 (OVCAR-3 ovarian) was 16.1 µM, the TGI (OVCAR-3 ovarian) was 31.3 µM and the GI50 (RPMI-8226 leukemia) was 16.6 µM. It also gave a TGI (RPMI-8226 leukemia) of 39.5 µM.
`CN(C)CCNC(=O)c1cccc2cc3ccc4ccccc4c3nc12` was tested, and the TGI (UO-31 renal) was 0.218 µM, the TGI (ACHN renal) was 0.0561 µM and the TGI (UACC-257 melanoma) was 0.535 µM. The TGI (UACC-62 melanoma) was 0.23 µM, the TGI (SF-295 CNS) was 0.886 µM and the TGI (HT29 colon) was 0.701 µM. For the same molecule, the TGI (SN12C renal) was 0.818 µM, the TGI (OVCAR-3 ovarian) was 0.738 µM and the TGI (RPMI-8226 leukemia) was 0.527 µM.
In the case of `O=C(O)Cn1ccc(=O)c2c([N+](=O)[O-])cccc21`, the TGI (UO-31 renal) is reported as greater than 100 µM, the TGI (ACHN renal) is reported as greater than 100 µM and the TGI (UACC-257 melanoma) is reported as greater than 100 µM. The TGI (UACC-62 melanoma) was greater than 100 µM, the TGI (SF-295 CNS) was greater than 100 µM and the TGI (HT29 colon) was greater than 100 µM. For the same molecule, the TGI (DU-145 prostate) was greater than 100 µM, the TGI (SN12C renal) was greater than 100 µM and the TGI (OVCAR-3 ovarian) was greater than 100 µM.
`COC(=O)c1cc2ccccc2c2nc3ccccc3c(Cl)c12` showed a TGI (ACHN renal) greater than 100 µM, a TGI (UACC-257 melanoma) greater than 100 µM and a TGI (UACC-62 melanoma) greater than 100 µM. For the same molecule, the TGI (SF-295 CNS) was greater than 100 µM, the TGI (HT29 colon) was greater than 100 µM and the TGI (SN12C renal) was greater than 100 µM. It also gave a TGI (OVCAR-3 ovarian) greater than 100 µM and a TGI (RPMI-8226 leukemia) greater than 100 µM.
`NCC(Cc1ccccc1)P(=O)(O)O` (configuration not stated) was tested, and the TGI (UO-31 renal) was greater than 100 µM, the TGI (ACHN renal) was greater than 100 µM and the TGI (UACC-257 melanoma) was greater than 100 µM. It also gave a TGI (UACC-62 melanoma) greater than 100 µM, a TGI (SF-295 CNS) greater than 100 µM and a TGI (HT29 colon) greater than 100 µM. The TGI (DU-145 prostate) was greater than 100 µM, the TGI (SN12C renal) was greater than 100 µM and the TGI (OVCAR-3 ovarian) was greater than 100 µM.
Molecule `CC1(C)OC2OC(COC(=O)C(c3ccccc3)c3ccccc3)C3OC(C)(C)OC3C2O1` (configuration not stated) has a TGI (UO-31 renal) greater than 100 µM, a TGI (ACHN renal) greater than 100 µM and a TGI (UACC-62 melanoma) greater than 100 µM. It also gave a TGI (SF-295 CNS) greater than 100 µM, a TGI (HT29 colon) greater than 100 µM and a TGI (SN12C renal) greater than 100 µM. For the same molecule, the TGI (RPMI-8226 leukemia) was 42.7 µM.
Molecule `O=c1[nH]c(=O)n(C2CC(O)C(O)C(CO)O2)cc1F` (configuration not stated) has a TGI (UO-31 renal) greater than 100 µM, a TGI (ACHN renal) greater than 100 µM and a TGI (UACC-257 melanoma) greater than 100 µM. The TGI (UACC-62 melanoma) was greater than 100 µM, the TGI (SF-295 CNS) was greater than 100 µM and the TGI (HT29 colon) was greater than 100 µM. For the same molecule, the TGI (SN12C renal) was greater than 100 µM, the TGI (OVCAR-3 ovarian) was greater than 100 µM and the TGI (RPMI-8226 leukemia) was greater than 100 µM.
`O=S(=O)(NCCCNc1nccc(-c2c(-c3cccc(F)c3)nc3occn23)n1)c1cccc2ccccc12` was tested, and the GI50 (UO-31 renal) was 3.25 µM, the TGI (UO-31 renal) was greater than 100 µM and the GI50 (ACHN renal) was 3.64 µM. The TGI (ACHN renal) was greater than 100 µM, the GI50 (UACC-257 melanoma) was 21 µM and the TGI (UACC-257 melanoma) was greater than 100 µM. The GI50 (UACC-62 melanoma) was 4.28 µM, the TGI (UACC-62 melanoma) was greater than 100 µM and the GI50 (SF-295 CNS) was 5.5 µM. For the same molecule, the TGI (SF-295 CNS) was greater than 100 µM, the GI50 (DU-145 prostate) was 6.97 µM and the TGI (DU-145 prostate) was greater than 100 µM. It also gave a GI50 (SN12C renal) of 3.44 µM, a TGI (SN12C renal) greater than 100 µM and a GI50 (OVCAR-3 ovarian) of 13.5 µM. The TGI (OVCAR-3 ovarian) was greater than 100 µM, the GI50 (RPMI-8226 leukemia) was 4.86 µM and the TGI (RPMI-8226 leukemia) was greater than 100 µM.
Molecule `Nc1ncnc2c1ncn2CCOC(c1ccccc1)P(=O)(O)O` (configuration not stated) has a TGI (UO-31 renal) greater than 100 µM, a TGI (ACHN renal) greater than 100 µM and a TGI (UACC-257 melanoma) greater than 100 µM. It also gave a TGI (UACC-62 melanoma) greater than 100 µM, a TGI (SF-295 CNS) greater than 100 µM and a TGI (HT29 colon) greater than 100 µM. The TGI (SN12C renal) was greater than 100 µM and the TGI (OVCAR-3 ovarian) was greater than 100 µM.
Work on `CC(C)=CC(=O)CC(=O)C(=O)NCCNC(=O)C(=O)CC(=O)C=C(C)C` yielded a TGI (UO-31 renal) greater than 50 µM, a TGI (ACHN renal) greater than 50 µM and a TGI (UACC-257 melanoma) greater than 50 µM. For the same molecule, the TGI (UACC-62 melanoma) was greater than 50 µM, the TGI (SF-295 CNS) was greater than 50 µM and the TGI (HT29 colon) was greater than 50 µM. It also gave a TGI (SN12C renal) greater than 50 µM, a TGI (OVCAR-3 ovarian) greater than 50 µM and a TGI (RPMI-8226 leukemia) greater than 50 µM.
